Measurements: patent US20070270459A1, “Overactive bladder treating drug” (ASTELLAS PHARMA INC., priority 2002, published 2007)
Where a name gives a salt, the structure may show the parent alone.

Test system: overactive bladder model rat
Experiment: Cystometry under nonanesthesized condition in overactive bladder model (BOO) rats
Assay type: in vivo
Description: (1) Preparation of Overactive Bladder Model Rats
Wistar female rats (6 to 7 weeks old) were employed for the preparation. A catheter was inserted into the urinary bladder through the external urethral orifice under anesthesia with sodium pentobarbital in rats. After subjecting the abdominal region to the median section, the proximal urethra was ligated together with the catheter at 2 sites by a silk blade (5-0), and the catheter was removed.
(2) Cystometry Under Nonanesthesized Condition
At more than 6 weeks after surgery, the silk blade used for ligation of the urethra was removed under anesthesia with sodium pentobarbital. A catheter for infusion of physiological saline and for the measurement of the intravesical pressure was inserted into the urinary bladder through the top part of the urinary bladder and fixed. A catheter for administration of a drug was inserted into the jugular vein, and the rat was returned to a housing cage after recovery. At 2 days after surgery, the catheter inserted into the urinary bladder was connected to a syringe pump for continuous infusion of physiological saline (7-20 mL/hr) to induce the micturition reflex and to a pressure transducer to measure the intravesical pressure with a three way stopcock. After the micturition reflex was stabilized, physiological saline or a drug was administered through the catheter for administration of a drug inserted into the jugular vein.
As the parameters evaluated, the frequency of contraction before micturition (the number of contractions for 10 min before starting of micturition), contraction pressure (mean contraction pressure for 10 min before starting of micturition), micturition pressure and interval of micturition were employed for the present test. The effect of a drug was evaluated on the basis of the inhibition ratio against the pre-dosing values (prolongation ratio in the micturition interval).
Tamsulosin hydrochloride was administered intravenously in increasing the doses at a common ratio of about 3 (1, 3 and 10 μg/kg). The action of tamsulosin hydrochloride (3 μg/kg) in combination with Solifenacin succinate (3 mg/kg) on each parameter was also evaluated.
Each test was performed at n=5, and the results are expressed as mean±standard error. Student's t-test and Tukey's test were used for comparison between 2 groups and among multiple groups, respectively.

Row | Compound | interval of micturition, prolongation ratio (3 μg/kg i.v., alone) [%] | micturition pressure (10 μg/kg intravenous) | interval of micturition, prolongation ratio (10 μg/kg intravenous, vs pre-dosing value) [%] | frequency of contraction before micturition (number of contractions for 10 min before starting of micturition) (tamsulosin hydrochloride 1, 3 and 10 μg/kg intravenous, vs pre-dosing values, n=5, FIG. 1A) | contraction pressure before micturition (mean contraction pressure for 10 min before starting of micturition) (tamsulosin hydrochloride 1, 3 and 10 μg/kg intravenous, vs pre-dosing values, n=5, FIG. 1B) | micturition pressure (tamsulosin hydrochloride alone, comparison arm of the combination test (3 μg/kg i.v.)) | interval of micturition, prolongation ratio (3 mg/kg i.v., alone) [%]
1 | CCOc1ccccc1OCCN[C@H](C)Cc1ccc(OC)c(S(N)(=O)=O)c1 [tamsulosin hydrochloride, (R)(−)-5-[2-[[2-(o-ethoxyphenoxy)ethyl]amino]propyl]-2-methoxybenzene-sulfonamide] | 2.1 | no influence | 9.2 | inhibited in a dose-dependent manner | inhibited in a dose-dependent manner | no effect | –
2 | O=C(O[C@H]1CN2CCC1CC2)N1CCc2ccccc2[C@@H]1c1ccccc1 [solifenacin succinate, (+)-(1S,3′R)-quinuclidin-3′-yl 1-phenyl-1,2,3,4-tetrahydroisoquinoline-2-carboxylate] | – | – | – | – | – | – | 2.6
